Laboratory results reported in patent US3966747A, “9-Hydroxy-6,7-benzomorphans” (Bristol-Myers Company, priority 1974, dated 1976).
Read-outs that look alike come from different tables or passages of the source.

Columns and labels:
[1] = system: phenylquinone induced writhing; assay: Agonist activity: mouse phenylquinone writhing; format: in vivo; details: for ED50: Mus musculus; for subcutaneous analgesic activity: in words
Procedure: (§1) In vivo testing was conducted on the compounds designated herein as dl-XVIc, l-XVIc tartrate, d-XVIc tartrate, dl-XVIe, dl-XVId and dl-XVIb to determine their agonist and/or antagonist properties. The figures reported are the number of milligrams/ kilogram of body weight of compound that produced an agonist or antagonist effect in 50% of the mice and rats so tested (ED50).
^1 A 50 percent reduction in number of phenylquinone induced writhing
(Siegmund, E. A. et al., Proc. Soc. Biol. & Med. 95, 729; 1957).
(§2) ^6 All values are reported in terms of the free base even though
(§3) administered as an acid addition salt.

[2] = system: Straub Tail induced by oxymorphone; assay: Antagonist activity: antagonism of Straub Tail induced by oxymorphone; format: in vivo, mice; details: oxymorphone 2 mg./kg. sc., as free base; for ED50: Mus musculus
Procedure: (§4) . The figures reported are the number of milligrams/ kilogram of body weight of compound that produced an agonist or antagonist effect in 50% of the mice and rats so tested (ED50).
^2 Antagonism of Straub Tail induced by oxymorphone (2 mg./kg. sc.) i
as §2, §3

[3] = system: analgesic effect induced by morphine; assay: animal or person; format: in vivo, Rat; details: for ED50: Rattus norvegicus
From the text: as §4
mg./kg. sc.) as measured by the rat tail flick procedure (Harris, L. S.
and Pierson, A. K., J. Pharmacol. & Expt. Therap., 143, 141; 1964).
as §2, §3

[4] = In vivo testing for agonist and/or antagonist properties (overall statement); design: species or system mice and rats; details: in words
Procedure: as §1

[5] = system: righting reflex loss induced by oxymorphone; assay: animal or person; format: in vivo, rats; details: for ED50: Rattus norvegicus
[6] = SC, 50 percent reduction in number of writhings, as free base, read-out: ED50, Agonist Activity, Mouse Phenylquinone Writhing, SC
[7] = PO, read-out: ED50, Antagonist Activity, Oxymorphone Straub Tail, PO
[8] = SC, read-out: ED50, Antagonist Activity, Oxymorphone Straub Tail, SC
[9] = SC, morphine 15 mg./kg. sc., as free base, read-out: ED50, Antagonist Activity, Morphine Antagonism Rat Tail Flick, SC
[10] = SC, oxymorphone 1.5 mg./kg. sc., as free base, read-out: ED50, Antagonist Activity, Oxymorphone Narcosis, SC
[11] = PO, morphine 15 mg./kg. sc., as free base, read-out: ED50, Antagonist Activity, Morphine Antagonism Rat Tail Flick, PO
[12] = PO, 50 percent reduction in number of writhings, as free base, read-out: ED50, Agonist Activity, Mouse Phenylquinone Writhing, PO
[13] = PO, oxymorphone 1.5 mg./kg. sc., as free base, read-out: ED50, Antagonist Activity, Oxymorphone Narcosis, PO
[14] = SC, 50 percent reduction in number of writhings, as free base

Compound	ED50 [1, 6]	ED50 [2, 7]	ED50 [2, 8]	ED50 [3, 9]	ED50 [5, 10]	ED50 [3, 11]	ED50 [5, 13]	further results
C=CC[C@]12CCN(CC3CC3)[C@H](Cc3ccc(O)cc31)[C@@]2(C)O (relative stereo) [dl-XVIb, 2',9β-Dihydroxy-2-cyclopropylmethyl-5-allyl-9α-methyl-6,7-benzomorphan]	> 40 mg/kg	16 mg/kg	0.12 mg/kg	0.018 mg/kg				subcutaneous analgesic activity [1]: weak subcutaneous analgesic activity; parenteral antagonist activity [4]: relatively potent parenteral antagonists
C=CC[C@]12CCN(CC3CCC3)[C@H](Cc3ccc(O)cc31)[C@@]2(C)O (relative stereo) [dl-XVIc, 2',9β-Dihydroxy-2-cyclobutylmethyl-5-allyl-9α-methyl-6,7-benzomorphan]	0.23 mg/kg		0.72 mg/kg	0.42 mg/kg	0.3 mg/kg			agonist and antagonist activity upon parenteral administration [4]: potent agonist and antagonist activity
C#CCN1CC[C@@]2(CC=C)c3cc(O)ccc3C[C@@H]1[C@@]2(C)O (relative stereo) [dl-XVId, 2',9β-Dihydroxy-2-propargyl-5-allyl-9α-methyl-6,7-benzomorphan]	> 40 mg/kg		1.41 mg/kg	0.14 mg/kg				subcutaneous analgesic activity [1]: weak subcutaneous analgesic activity; parenteral antagonist activity [4]: relatively potent parenteral antagonists
CCC[C@]12CCN(CC3CC3)[C@H](Cc3ccc(O)cc31)[C@@]2(C)O (relative stereo) [dl-XVIe, 2',9β-Dihydroxy-2-cyclopropylmethyl-5-propyl-9α-methyl-6,7benzomorphan]	> 40 mg/kg		0.11 mg/kg	0.03 mg/kg	0.08 mg/kg	6 mg/kg		subcutaneous analgesic activity [1]: weak subcutaneous analgesic activity; parenteral antagonist activity [4]: relatively potent parenteral antagonists
C[C@H]1[C@H]2Cc3ccc(O)cc3[C@]1(C)CCN2CC1CC1 [Cyclazocine]	0.047 mg/kg	24 mg/kg	0.81 mg/kg	0.04 mg/kg	0.12 mg/kg	3.7 mg/kg	2.7 mg/kg	ED50 [1, 12]: 4 mg/kg
C=CCN1CC[C@]23CCCC[C@H]2[C@H]1Cc1ccc(O)cc13 [Levallorphan]		46 mg/kg	0.29 mg/kg	0.086 mg/kg	0.32 mg/kg	12.6 mg/kg	5.4 mg/kg	
C=CCN1CC[C@]23c4c5ccc(O)c4O[C@H]2[C@@H](O)C=C[C@H]3[C@H]1C5 [Nalorphine]	0.77 mg/kg	> 64 mg/kg		0.38 mg/kg	0.58 mg/kg	22.1 mg/kg	5.4 mg/kg	ED50 [1, 12]: 15 mg/kg
C=CCN1CC[C@]23c4c5ccc(O)c4O[C@H]2C(=O)CC[C@@]3(O)[C@H]1C5 [Naloxone]	40 mg/kg	13.1 mg/kg	0.17 mg/kg					ED50 ([5]; po, read-out: ED50, Antagonist Activity, Oxymorphone Narcosis, PO): 0.95 mg/kg; ED50 ([5]; sc, read-out: ED50, Antagonist Activity, Oxymorphone Narcosis, SC): 0.02 mg/kg; ED50 ([3]; po, read-out: ED50, Antagonist Activity, Morphine Antagonism Rat Tail Flick, PO): 2.7 mg/kg; ED50 ([3]; sc, read-out: ED50, Antagonist Activity, Morphine Antagonism Rat Tail Flick, SC): 0.01 mg/kg
CC(C)=CCN1CCC2(C)c3cc(O)ccc3CC1C2C (stereo not drawn) [Pentazocine]	4.9 mg/kg	187 mg/kg	12 mg/kg			82.2 mg/kg	90 mg/kg	ED50 [1, 12]: 36 mg/kg
C=CCC12CCN(CC3CCC3)C(Cc3ccc(O)cc31)C2(C)O.O=C(O)C(O)C(O)C(=O)O (stereo not drawn) [d-XVIc, d-2',9β-Dihydroxy-9α-methyl-5-allyl-2-cyclobutylmethyl-6,7-benzomorphan tartrate]								ED50, Agonist Activity, Mouse Phenylquinone Writhing, SC [1, 14]: > 40 mg/kg; ED50, Antagonist Activity, Oxymorphone Straub Tail, SC ([2]; SC): ~ 40 mg./kg.
l-2', 9β-Dihydroxy-9α-methyl-5-propyl-2-cyclobutyl-6,7 -benzomorphan HCl [l-XVIr]								ED50, Agonist Activity, Mouse Phenylquinone Writhing, SC [1, 14]: 0.18 mg/kg; ED50, Antagonist Activity, Oxymorphone Straub Tail, SC ([2]; SC): 1.17 mg/kg; ED50, Antagonist Activity, Morphine Antagonism Rat Tail Flick, SC ([3]; SC, morphine 15 mg./kg. sc., as free base): 0.10 mg/kg
l- 2',9β-Dihydroxy-9α-methyl-5-allyl-2-cyclobutyl-6,7 -benzomorphan tartrate [l-XVIc]								ED50, Agonist Activity, Mouse Phenylquinone Writhing, PO ([1]; PO, 50 percent reduction in number of writhings, as free base): 8 mg/kg; ED50, Agonist Activity, Mouse Phenylquinone Writhing, SC [1, 14]: 0.055 mg/kg; ED50, Antagonist Activity, Oxymorphone Straub Tail, SC ([2]; SC): 0.43 mg/kg; ED50, Antagonist Activity, Oxymorphone Narcosis, SC ([5]; rat, in vivo, sc): 0.05 mg/kg; ED50, Antagonist Activity, Morphine Antagonism Rat Tail Flick, PO ([3]; rat, in vivo, po): 14.1 mg/kg; ED50, Antagonist Activity, Morphine Antagonism Rat Tail Flick, SC ([3]; rat, in vivo, sc): 0.08 mg/kg; agonist and antagonist activity upon parenteral administration [4]: potent agonist and antagonist activity
